The values below come from patent publication US7189720B2 (H. Lundbeck A/S, priority 1999, dated 2007).

The structures appear in SMILES notation.

The Ki is the equilibrium dissociation constant of an inhibitor or competing ligand from its target.

One test has as its target T1, human Y5 receptor (Homo sapiens, UniProt Q15761).
T1 construct: expressed in transfected cells; host or cells: mouse fibroblast LM(tk-) cells, e.g. L-hY5-7 (ATCC CRL-11995)
T1 sequence (Q15761 1-445): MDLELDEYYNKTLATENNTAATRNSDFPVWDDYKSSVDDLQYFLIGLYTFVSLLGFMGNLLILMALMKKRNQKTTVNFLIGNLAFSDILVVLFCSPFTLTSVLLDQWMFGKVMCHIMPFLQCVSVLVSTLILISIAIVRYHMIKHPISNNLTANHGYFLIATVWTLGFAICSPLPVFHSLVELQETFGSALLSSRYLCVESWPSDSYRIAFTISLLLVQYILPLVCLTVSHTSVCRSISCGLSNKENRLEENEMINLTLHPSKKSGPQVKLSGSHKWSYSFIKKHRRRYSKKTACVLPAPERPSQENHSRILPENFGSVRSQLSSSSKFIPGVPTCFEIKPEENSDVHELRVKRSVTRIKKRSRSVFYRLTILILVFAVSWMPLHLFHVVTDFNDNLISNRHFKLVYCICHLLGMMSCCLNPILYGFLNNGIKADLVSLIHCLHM
Kind of test: Radioligand binding to membranes, cloned human Y5 receptor. The note with it: Table 5; read-out: Ki, nM hNPY-5.
Procedure: Binding of the compounds of the present invention to human Y1, Y2, Y4, and Y5 receptors was evaluated using stably transfected 293 or LM(tk-) cells as described above.
Membranes were harvested from COS-7 cells 48 hours after transient transfection. Adherent cells were washed twice in ice-cold phosphate buffered saline (138 mM NaCl, 8.1 mM Na2HPO4, 2.5 mM KCl, 1.2 mM KH2PO4, 0.9 mM CaCl2, 0.5 mM MgCl2, pH 7.4) and lysed by sonication in ice-cold sonication buffer (20 mM Tris-HCl, 5 mM EDTA, pH 7.7). Large particles and debris were cleared by low speed centrifugation (200×g, 5 min, 4° C.). Membranes were collected from the supernatant fraction by centrifugation (32,000×g, 18 min, 4° C.), washed with ice-cold hypotonic buffer, and collected again by centrifugation (32,000×g, 18 min, 4° C.). The final membrane pellet was resuspended by sonication into a small volume of ice-cold binding buffer (˜1 ml for every 5 plates: 10 mM NaCl, 20 mM HEPES, 0.22 mM KH2PO4, 1.26 mM CaCl2, 0.81 mM MgSO4, pH 7.4). Protein concentration was measured by the Bradford method (Bradford, 1976) using Bio-Rad Reagent, with bovine serum albumin as a standard. Membranes were held on ice for up to one hour and used fresh, or flash-frozen and stored in liquid nitrogen.
Membranes were prepared similarly from 293, LM(tk-), and NIH-3T3 cells.
Membrane suspensions were diluted in binding buffer supplemented with 0.1% bovine serum albumin to yield an optimal membrane protein concentration so that ^125I-PYY (or alternative radioligand such as ^125I-NPY, ^125I-NYY3-36, or ^125I-[Leu^31Pro^34]PYY) bound by membranes in the assay was less than 10% of ^125I-PYY (or alternative radioligand) delivered to the sample (100,000 dpm/sample=0.08 nM for competition binding assays). ^125I-PYY (or alternative radioligand) and peptide competitors were also diluted to desired concentrations in supplemented binding buffer. Individual samples were then prepared in 96-well polypropylene microtiter plates by mixing ^125I-PYY (25 μL) (or alternative radioligand), competing peptides or supplemented binding buffer (25 μL), and finally, membrane suspensions (200 μL). Samples were incubated in a 30° C. water bath with constant shaking for 120 min. Incubations were terminated by filtration over Whatman GF/C filters (pre-coated with 1% polyethyleneimine and air-dried before use), followed by washing with 5 mL of ice-cold binding buffer. Filter-trapped membranes were impregnated with MeltiLex solid scintillant (Wallac, Turku, Finland) and counted for ^125I in a Wallac Beta-Plate Reader. Alternatively, incubations were carried out in GF/C filter plates (pre-coated with 1% polyethyleneimine and air-dried before use), followed by vacuum filtration and three washes of 300 μL of ice-cold binding buffer. 50 μL of UltimaGold (Packard) scintillant were added and counted for ^125I, in a Wallac MicroBeta Trilux. Non-specific binding was defined by 300 nM human NPY for all receptors except the Y4 subtypes; 100 nM human PP was used for the human Y4 and 100 nM rat PP for the rat Y4.
`Cc1noc(C)c1S(=O)(=O)N[C@H]1CC[C@H](CNc2nc(-c3ccccn3)cs2)CC1` [Example 85, trans-2-(4-(3,5-Dimethyl-4-isoxazolyl)sulfonylamino)-cyclohexylmethylamino-4-(2-pyridyl)thiazole dihydrogen chloride]: the inhibitory constant (Ki) amounted to 3.8 nM.

In the case of `O=S(=O)(N[C@H]1CC[C@H](CNc2nc(-c3cccnc3)cs2)CC1)c1ccccc1F` [Example 86, trans-2-(4-(2-Fluorophenyl)sulfonylamino)cyclohexylmethyl-amino-4-(3-pyridyl)thiazole dihydrogen chloride], the inhibitory constant (Ki) is 12.3 nM.

On to `COc1ccc(C)cc1S(=O)(=O)N[C@H]1CC[C@H](CNc2nc(-c3ccncc3)cs2)CC1` [Example 87, trans-2-(4-(2-Methoxy-5-methylphenyl)sulfonylamino)-cyclohexylmethylamino-4-(4-pyridyl)thiazole dihydrogen chloride], for which the Ki was found to be 17 nM.

Turning to `COc1ccc(C)cc1S(=O)(=O)NCCCCCNc1nc(-c2nccs2)cs1` [Example 88, N1-(5-[4-(1,3-thiazol-2-yl)-1,3-thiazol-2-yl]aminopentyl)-2-methoxy-5-methyl-1-benzenesulfonamide], the Ki is 13.7 nM.

For `COc1ccc(C)cc1S(=O)(=O)NC[C@H]1CC[C@H](Nc2nc(-c3nc(C)sc3C)cs2)CC1` [Example 89, trans-N1-[(4-[4-(2,5-Dimethyl-1,3-thiazol-4-yl)-1,3-thiazol-2-yl]aminocyclohexyl)methyl]-2-methoxy-5-methyl-1-benzenesulfonamide], the inhibition constant Ki is 3.2 nM.

For `CN(C)S(=O)(=O)NC[C@H]1CC[C@H](Nc2nc(-c3nccs3)cs2)CC1` [Example 90, trans-N,N-dimethyl-N′-[(4-[4-(-1,3-thiazol-2-yl)-1,3-thiazol-2-yl]aminocyclohexyl)methyl]sulfamide], the inhibition constant Ki worked out at 17.5 nM.

Consider `CN(C)S(=O)(=O)NCCCCCNc1nc(-c2cccs2)cs1` [Example 91, N,N-Dimethyl-N′-(5-{[4-(2-thienyl)-1,3-thiazol-2-yl]amino}-pentyl)sulfamide], for which the Ki came out at 12.4 nM.

In the case of `COc1ccc(C)cc1S(=O)(=O)NCCCCCNc1nc(-c2cccs2)cs1` [Example 92, N1-(5-{[4-(2-Thienyl)-1,3-thiazol-2-yl]amino}pentyl)-2-methoxy-5-methyl-1-benzenesulfonamide], the Ki came to 7.9 nM.

As to `COc1ccc(C)cc1S(=O)(=O)NCCCCCNc1nc(-c2nc(C)sc2C)cs1` [Example 93, N1-(5-[4-(2,5-Dimethyl-1,3-thiazol-4-yl)-1,3-thiazol-2-yl]aminopentyl)-2-methoxy-5-methyl-1-benzenesulfonamide], the inhibition constant (Ki) came to 3.6 nM.

For `Cc1nc(-c2csc(NCCCCCNS(=O)(=O)c3ccc(F)cc3)n2)c(C)s1` [Example 94, N1-(5-[4-(2,5-Dimethyl-1,3-thiazol-4-yl)-1,3-thiazol-2-yl]aminopentyl)-4-fluoro-1-benzenesulfonamide], the Ki worked out at 19.5 nM.

With `O=S(=O)(NCCCCCNc1nc(-c2nccs2)cs1)c1ccc(F)cc1` [Example 95, N1-(5-[4-(1,3-Thiazol-2-yl)-1,3-thiazol-2-yl]aminopentyl)-4-fluoro-1-benzenesulfonamide], the Ki turned out to be 179 nM.

With `Cc1nc(-c2csc(NCCCCCNS(=O)(=O)N(C)C)n2)c(C)s1` [Example 96, N′-(5-[4-(2,5-Dimethyl-1,3-thiazol-4-yl)-1,3-thiazol-2-yl]aminopentyl)-N,N-dimethylsulfamide], the Ki turned out to be 8.1 nM.

As to `Cc1nc(-c2csc(N[C@H]3CC[C@H](CNS(=O)(=O)c4ccc(F)cc4)CC3)n2)c(C)s1` [Example 97], the Ki came out at 6.6 nM.

Consider `Cc1nc(-c2cnc(NC[C@H]3CC[C@H](CNS(=O)(=O)N(C)C)CC3)s2)c(C)s1` [Example 99, trans-N′-[4-([5-(2,5-Dimethyl-1,3-thiazol-4-yl)-1,3-thiazol-2-yl]aminomethyl)cyclohexyl]methyl-N,N-dimethyl-sulfamide], for which the inhibition constant Ki was found to be 3.1 nM.

Consider `Cc1nc(-c2csc(NC[C@H]3CC[C@H](CNS(=O)(=O)N4CCOCC4)CC3)n2)c(C)s1` [Example 100, trans-N4-[4-([4-(2,5-Dimethyl-1,3-thiazol-4-yl)-1,3-thiazol-2-yl]aminomethyl)cyclohexyl]methyl-4-morpholinesulfonamide], for which the inhibition constant (Ki) was 3.3 nM.

`COCCN(C=O)[C@H]1CC[C@H](CNc2nc(-c3nc(C)sc3C)cs2)CC1` [Example 101, trans-N-[4-([4-(2,5-Dimethyl-1,3-thiazol-4-yl)-1,3-thiazol-2-yl]aminomethyl)cyclohexyl]-N-(2-methoxyethyl)formamide]: the Ki turned out to be 407 nM.

Take `Cc1nc(-c2csc(NC[C@H]3CC[C@H](N(C=O)C(C)C)CC3)n2)c(C)s1` [Example 102, trans-N-[4-([4-(2,5-Dimethyl-1,3-thiazol-4-yl)-1,3-thiazol-2-yl]aminomethyl)cyclohexyl]-N-isopropylformamide]: the Ki worked out at 72 nM.

The test is the same for the next values; noted with them: Table 6; read-out: Ki, nM hNPY-5.
For the compound `CS(=O)(=O)NCCCCCCNc1nc2c(s1)CCSc1ccccc1-2` [Example 103, N-[6-(4,5-Dihydrobenzo[2,3]thiepino[4,5-d][1,3]thiazol-2-ylamino)hexyl]methanesulfonamide], the Ki is 7.4 nM.

As to `CCS(=O)(=O)NCCCCCCNc1nc2c(s1)CCSc1ccccc1-2` [Example 105, N1-[6-(4,5-Dihydrobenzo[2,3]thiepino[4,5-d][1,3]thiazol-2-ylamino)hexyl]-1-ethanesulfonamide], the Ki worked out at 5.4 nM.

As for `O=S(=O)(NC[C@H]1CC[C@H](Nc2nc3c(s2)CCSc2ccccc2-3)CC1)c1cccs1` [Example 108, N2-{[4-(4,5-Dihydrobenzo[2,3]thiepino[4,5-d][1,3]thiazol-2-ylamino)cyclohexyl]methyl}-2-thiophenesulfonamide], the inhibitory constant (Ki) was 5.1 nM.

In the case of `Cn1cnc(S(=O)(=O)NCCCCCNc2nc3c(s2)CCSc2ccccc2-3)c1` [Example 111, N4-[5-(4,5-Dihydrobenzo[2,3]thiepino[4,5-d][1,3]thiazol-2-ylamino)pentyl]-1-methyl-1H-4-imidazolesulfonamide], the inhibition constant (Ki) was 17.2 nM.

In the case of `O=S(=O)(NCCCCCCNc1nc2c(s1)CCSc1ccccc1-2)c1cccc2nsnc12` [Example 112, N4-[6-(4,5-Dihydrobenzo[2,3]thiepino[4,5-d][1,3]thiazol-2-ylamino)hexyl]-2,1,3-benzothiadiazole-4-sulfonamide], the Ki was 4.4 nM.

Regarding `COc1ccc(C)cc1S(=O)(=O)NCCCCCCNc1nc2c(s1)CCSc1ccccc1-2` [Example 113, N1-[6-(4,5-Dihydrobenzo[2,3]thiepino[4,5-d][1,3]thiazol-2-ylamino)hexyl]-2-methoxy-5-methyl-1-benzenesulfonamide], the inhibition constant Ki came to 5.4 nM.

As to `O=S(=O)(NCCCCCCNc1nc2c(s1)CCSc1ccccc1-2)c1cccc2ccccc12` [Example 114, N1-[6-(4,5-Dihydrobenzo[2,3]thiepino[4,5-d][1,3]thiazol-2-ylamino)hexyl]-1-naphthalenesulfonamide], the Ki is 16.6 nM.

As to `CN(C)c1cccc2c(S(=O)(=O)NCCCCCCNc3nc4c(s3)CCSc3ccccc3-4)cccc12` [Example 115, N1-[6-(4,5-Dihydrobenzo[2,3]thiepino[4,5-d][1,3]thiazol-2-ylamino)hexyl]-5-(dimethylamino)-1-naphthalenesulfonamide], the Ki worked out at 71 nM.

In the case of `O=[N+]([O-])c1ccccc1S(=O)(=O)NCCCCCCNc1nc2c(s1)CCSc1ccccc1-2` [Example 116, N1-[6-(4,5-Dihydrobenzo[2,3]thiepino[4,5-d][1,3]thiazol-2-ylamino)hexyl]-2-nitro-1-benzenesulfonamide], the Ki is 7.1 nM.

As to `O=S(=O)(NCCCCCCNc1nc2c(s1)CCSc1ccccc1-2)c1c(Cl)nc2sccn12` [Example 117, N5-[6-(4,5-Dihydrobenzo[2,3]thiepino[4,5-d][1,3]thiazol-2-ylamino)hexyl]-6-chloroimidazo[2,1-b][1,3]thiazole-5-sulfonamide], the Ki is 6.6 nM.

As for `COc1ccc(C)cc1S(=O)(=O)NC[C@H]1CC[C@H](Nc2nc3c(s2)CCSc2ccccc2-3)CC1` [Example 119, N1-{[4-(4,5-Dihydrobenzo[2,3]thiepino[4,5-d][1,3]thiazol-2-ylamino)cyclohexyl]methyl}-2-methoxy-5-methyl-1-benzenesulfonamide], the inhibition constant Ki was determined as 14.1 nM.

As for `O=S(=O)(NC[C@H]1CC[C@H](Nc2nc3c(s2)CCSc2ccccc2-3)CC1)c1ccc(-c2ccccn2)s1` [Example 120, N2-{[4-(4,5-Dihydrobenzo[2,3]thiepino[4,5-d][1,3]thiazol-2-ylamino)cyclohexyl]methyl}-5-(2-pyridyl)-2-thiophenesulfonamide], the Ki came to 54 nM.

On to `O=S(=O)(NC[C@H]1CC[C@H](Nc2nc3c(s2)CCSc2ccccc2-3)CC1)c1cccc2ccccc12` [Example 121, N1-{[4-(4,5-Dihydrobenzo[2,3]thiepino[4,5-d][1,3]thiazol-2-ylamino)cyclohexyl]methyl}-1-naphthalenesulfonamide], for which the inhibitory constant (Ki) came to 18.4 nM.

Consider `CN(C)c1cccc2c(S(=O)(=O)NC[C@H]3CC[C@H](Nc4nc5c(s4)CCSc4ccccc4-5)CC3)cccc12` [Example 122, N1-{[4-(4,5-Dihydrobenzo[2,3]thiepino[4,5-d][1,3]thiazol-2-ylamino)cyclohexyl]methyl}-5-(dimethylamino)-1-naphthalenesulfonamide], for which the inhibition constant (Ki) worked out at 27 nM.
